Article PMC3914206

What was measured:
Assay type in all cases: binding
Set-up in all cases: KINOMEscan: ABL1(F317L)-phosphorylated / KINOMEscan: ABL1(H396P)-nonphosphorylated / KINOMEscan: ABL1(H396P)-phosphorylated / KINOMEscan: ABL1(M351T)-phosphorylated / KINOMEscan: ABL1(T315I)-phosphorylated / KINOMEscan: ABL1-nonphosphorylated / KINOMEscan: ABL1-phosphorylated / KINOMEscan: ACVR2A / KINOMEscan: ACVR2B / KINOMEscan: ADCK3 / KINOMEscan: ADCK4 / KINOMEscan: AKT1 / KINOMEscan: AKT3 / KINOMEscan: ALK / KINOMEscan: ARK5 / KINOMEscan: AURKA / KINOMEscan: AURKC / KINOMEscan: BIKE / KINOMEscan: BMPR1A / KINOMEscan: BMPR1B / KINOMEscan: BMX / KINOMEscan: BRK / KINOMEscan: BRSK1 / KINOMEscan: BRSK2 / KINOMEscan: CAMK1 / KINOMEscan: CAMK1D / KINOMEscan: CAMK1G / KINOMEscan: CAMK2A / KINOMEscan: CAMK2B / KINOMEscan: AAK1 / KINOMEscan: CAMK2D / KINOMEscan: CAMK2G / KINOMEscan: ABL1(F317I)-nonphosphorylated / KINOMEscan: ABL1(F317I)-phosphorylated / KINOMEscan: ABL1(F317L)-nonphosphorylated: unit: % Ctrl
panel of 442 kinases [1] = target: T1, panel of 442 kinases (Homo sapiens, UniProt Q9P0L2); conditions: Compound Concentration 10 µM
T1 construct: purchased KINOMEscan
T1 sequence (Q9P0L2 whole entry): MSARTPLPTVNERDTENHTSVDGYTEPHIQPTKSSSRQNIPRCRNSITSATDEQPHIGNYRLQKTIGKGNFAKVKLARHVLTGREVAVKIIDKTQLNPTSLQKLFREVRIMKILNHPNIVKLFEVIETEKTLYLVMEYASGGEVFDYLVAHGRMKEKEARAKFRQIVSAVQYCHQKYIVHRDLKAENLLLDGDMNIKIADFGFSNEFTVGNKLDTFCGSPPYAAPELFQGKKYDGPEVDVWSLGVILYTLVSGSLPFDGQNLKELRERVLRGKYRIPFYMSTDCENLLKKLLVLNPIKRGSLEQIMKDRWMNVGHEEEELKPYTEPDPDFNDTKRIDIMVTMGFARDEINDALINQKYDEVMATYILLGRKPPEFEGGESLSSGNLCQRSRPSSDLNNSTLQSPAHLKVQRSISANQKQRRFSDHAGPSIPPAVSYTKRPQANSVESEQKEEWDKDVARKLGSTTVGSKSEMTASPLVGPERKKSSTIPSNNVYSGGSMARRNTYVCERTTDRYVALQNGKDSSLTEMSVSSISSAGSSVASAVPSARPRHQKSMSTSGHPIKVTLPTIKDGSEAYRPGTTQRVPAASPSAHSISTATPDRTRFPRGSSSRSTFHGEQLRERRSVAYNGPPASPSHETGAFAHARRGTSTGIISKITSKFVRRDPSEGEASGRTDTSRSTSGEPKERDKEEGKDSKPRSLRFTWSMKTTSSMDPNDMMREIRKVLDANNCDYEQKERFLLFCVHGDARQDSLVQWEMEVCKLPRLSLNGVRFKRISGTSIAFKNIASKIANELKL
Source text: (§1) We assessed the selectivity of members of this scaffold using the KINOMEscan methodology across a near comprehensive panel of 442 kinases [[18,27]].

panel of 442 kinases [2] = target: T2, panel of 442 kinases (Homo sapiens, UniProt Q9Y6M4); conditions: Compound Concentration 10 µM
T2 construct: purchased KINOMEscan
T2 sequence (Q9Y6M4 whole entry): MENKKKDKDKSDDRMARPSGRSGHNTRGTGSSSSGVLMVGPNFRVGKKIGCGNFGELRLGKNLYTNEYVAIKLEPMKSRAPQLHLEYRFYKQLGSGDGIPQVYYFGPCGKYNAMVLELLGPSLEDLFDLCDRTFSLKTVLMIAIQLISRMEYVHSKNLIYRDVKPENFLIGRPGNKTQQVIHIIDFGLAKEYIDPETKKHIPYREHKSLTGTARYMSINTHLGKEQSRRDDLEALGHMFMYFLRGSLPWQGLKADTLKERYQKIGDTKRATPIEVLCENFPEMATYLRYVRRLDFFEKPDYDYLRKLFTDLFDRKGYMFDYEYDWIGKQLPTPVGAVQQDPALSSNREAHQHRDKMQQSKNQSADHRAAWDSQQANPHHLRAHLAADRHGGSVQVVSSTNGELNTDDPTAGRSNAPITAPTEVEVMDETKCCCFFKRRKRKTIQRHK
Source text: as §1

panel of 442 kinases [3] = target: T3, panel of 442 kinases (Homo sapiens, UniProt Q86Y07); conditions: kinase VRK2; compound concentration 10 µM
T3 construct: purchased KINOMEscan
T3 sequence (Q86Y07 whole entry): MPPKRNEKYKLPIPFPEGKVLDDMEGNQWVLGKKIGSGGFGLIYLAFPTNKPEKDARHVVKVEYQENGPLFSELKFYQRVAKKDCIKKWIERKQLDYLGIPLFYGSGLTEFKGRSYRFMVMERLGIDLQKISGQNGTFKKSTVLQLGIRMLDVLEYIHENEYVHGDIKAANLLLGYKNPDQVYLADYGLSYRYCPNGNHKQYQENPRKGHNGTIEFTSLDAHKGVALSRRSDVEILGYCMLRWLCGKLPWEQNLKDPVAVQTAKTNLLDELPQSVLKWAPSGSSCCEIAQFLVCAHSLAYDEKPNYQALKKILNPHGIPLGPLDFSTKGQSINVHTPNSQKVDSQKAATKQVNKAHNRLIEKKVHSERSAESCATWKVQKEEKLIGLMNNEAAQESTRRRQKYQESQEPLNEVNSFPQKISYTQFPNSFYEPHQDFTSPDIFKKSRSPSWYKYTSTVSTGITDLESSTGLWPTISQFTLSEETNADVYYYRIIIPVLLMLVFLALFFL
Source text: as §1

panel of 442 kinases [4] = target: T4, panel of 442 kinases (Homo sapiens, UniProt P00519, F317L); conditions: Compound Concentration 10 µM
T4 construct: purchased KINOMEscan
T4 sequence (P00519 whole entry F317L): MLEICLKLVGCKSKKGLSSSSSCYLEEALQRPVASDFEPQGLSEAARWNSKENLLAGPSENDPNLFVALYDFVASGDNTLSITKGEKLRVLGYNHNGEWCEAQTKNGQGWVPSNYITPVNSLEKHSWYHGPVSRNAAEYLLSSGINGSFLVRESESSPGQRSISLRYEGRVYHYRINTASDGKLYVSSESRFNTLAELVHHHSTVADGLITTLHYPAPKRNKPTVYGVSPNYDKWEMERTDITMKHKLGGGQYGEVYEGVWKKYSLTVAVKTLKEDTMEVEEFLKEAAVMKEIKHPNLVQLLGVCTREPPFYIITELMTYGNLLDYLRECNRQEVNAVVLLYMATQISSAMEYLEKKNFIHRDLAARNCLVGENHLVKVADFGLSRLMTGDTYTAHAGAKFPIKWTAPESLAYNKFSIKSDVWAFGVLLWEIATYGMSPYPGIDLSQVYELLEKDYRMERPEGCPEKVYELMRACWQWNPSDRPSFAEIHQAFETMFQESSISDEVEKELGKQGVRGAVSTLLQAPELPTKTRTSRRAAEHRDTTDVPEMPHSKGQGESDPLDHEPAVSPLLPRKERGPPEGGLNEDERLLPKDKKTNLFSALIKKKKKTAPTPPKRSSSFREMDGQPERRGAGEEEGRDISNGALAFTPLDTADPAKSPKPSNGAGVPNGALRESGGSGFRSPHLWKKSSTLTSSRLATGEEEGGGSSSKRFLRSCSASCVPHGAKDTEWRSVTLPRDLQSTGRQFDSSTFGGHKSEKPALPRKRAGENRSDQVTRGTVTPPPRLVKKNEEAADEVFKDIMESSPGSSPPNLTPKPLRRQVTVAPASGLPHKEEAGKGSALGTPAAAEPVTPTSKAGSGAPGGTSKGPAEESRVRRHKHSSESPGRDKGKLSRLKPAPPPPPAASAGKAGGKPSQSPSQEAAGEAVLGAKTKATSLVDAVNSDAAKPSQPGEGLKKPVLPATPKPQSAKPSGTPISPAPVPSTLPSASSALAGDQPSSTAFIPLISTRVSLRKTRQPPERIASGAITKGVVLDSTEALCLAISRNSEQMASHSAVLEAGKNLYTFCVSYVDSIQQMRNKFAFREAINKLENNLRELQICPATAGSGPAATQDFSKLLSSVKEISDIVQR
Source text: as §1

Row | SMILES | KINOMEscan: MARK1 (panel of 442 kinases [1]) | KINOMEscan: CSNK1G3 (panel of 442 kinases [2]) | % Ctrl, VRK2 (panel of 442 kinases [3]) [% Ctrl] | KINOMEscan: ABL1(F317L)-nonphosphorylated (panel of 442 kinases [4]) | KINOMEscan: ABL1(F317L)-phosphorylated (panel of 442 kinases [4])
1 | COc1cc(C(=O)N2CCC(N3CCN(C)CC3)CC2)ccc1Nc1ncc2c(n1)N(C)c1ccccc1C(=O)N2C [15 (LRRK2-IN-1)] | 87 | 93 | 99 | 14 | 0.85
2 | COc1cc(C(=O)N2CCC(N3CCN(C)CC3)CC2)ccc1Nc1ncc2c(n1)N1CCc3cccc(c31)C(=O)N2C [Compound 24] | 83 |  | 100 | 23 | 7.8
3 | COc1cc(C(=O)N2CCC(N3CCN(C)CC3)CC2)ccc1Nc1ncc2c(n1)N(C1CCCC1)c1ccccc1C(=O)N2C [Compound 25, 11-cyclopentyl-2-((2-methoxy-4-(4-(4-methylpiperazin-1-yl)piperidine-1-carbonyl)phenyl)amino)-5-methyl-5H-benzo[e]pyrimido[5,4-b][1,4]diazepin-6(11H)-one] | 99 | 96 | 100 | 15 | 9.1
4 | CCOc1cc(C(=O)N2CCC(N3CCN(C)CC3)CC2)ccc1Nc1ncc2c(n1)N(C1CCCC1)c1ccccc1C(=O)N2C [Compound 26] | 100 | 91 | 82 | 71 | 34
